We go through 63 compounds from patent publication US9101628B2, “Methods and composition of treating a flaviviridae family viral infection” (The Board of Trustees of the Leland Stanford Junior …, priority 2007, dated 2015).

The assay concerns HCV RNA replication. The experiment in a line: RNA replication inhibition assay (luciferase reporter-linked HCV genome). To be noted: Hepatitis C virus, percentage of untreated control population; for activity at 5 µM: read-out: Residual Luciferase activity, 5 micromolar; for activity at 10 µM: read-out: Residual Luciferase activity, 10 micromolar. For orientation: A reporter such as luciferase makes a cellular process visible.

In the case of `CCN(CC)c1c(C)c(C)cc2c1ncn2Cc1ccc(Cl)cc1` [Compound 73], the activity at 5 µM is below 80% and the activity at 10 µM is below 55%.

As for `Cc1ccccc1Cn1cnc2c(NS(C)(=O)=O)c(C)c(C)cc21` [Compound 74], the activity at 5 µM is above 80% and the activity at 10 µM was above 80%.

Turning to `Cc1cccc(Cn2cnc3c(NS(C)(=O)=O)c(C)c(C)cc32)c1` [Compound 75], the activity at 5 µM is above 80% and the activity at 10 µM was below 80%.

As to `Cc1cc2c(nc(C)n2Cc2ccccc2)c(NS(C)(=O)=O)c1C` [Compound 76], the activity at 5 µM was above 80% and the activity at 10 µM is below 80%.

For the compound `Cc1cccc(Cn2c(C)nc3c(NS(C)(=O)=O)c(C)c(C)cc32)c1` [Compound 77], the activity at 5 µM is above 80% and the activity at 10 µM is below 80%.

On to `Cc1cccc(Cn2cnc3c(NS(=O)(=O)C(F)(F)F)c(C)c(C)cc32)c1` [Compound 78], for which the activity at 5 µM was below 55% and the activity at 10 µM was below 20%.

As to `Cc1cc2c(ncn2C)c(NS(C)(=O)=O)c1C` [Compound 79], the activity at 5 µM is below 80% and the activity at 10 µM was above 80%.

As to `Cc1cccc(Cn2cnc3c(NS(=O)(=O)c4ccc(F)cc4)c(C)c(C)cc32)c1` [Compound 80], the activity at 5 µM was below 55% and the activity at 10 µM was below 80%.

As to `Cc1cc2c(ncn2Cc2ccc(Cl)cc2)c(CS(C)(=O)=O)c1C` [Compound 81], the activity at 5 µM is above 80% and the activity at 10 µM was below 80%.

Turning to `Cc1cc2c(ncn2Cc2ccc(Cl)cc2)c(NS(=O)(=O)c2cccc(Cl)c2)c1C` [Compound 82], the activity at 5 µM is above 80% and the activity at 10 µM was above 80%.

With `Clc1ccc(Cn2cnc3ccncc32)cc1` [Compound 83], the activity at 5 µM was below 80% and the activity at 10 µM was below 80%.

As for `Clc1ccc(Cn2cnc3cnccc32)cc1` [Compound 84], the activity at 5 µM is below 80% and the activity at 10 µM was above 80%.

Regarding `Clc1ccc(Cn2cnc3cccnc32)cc1` [Compound 85], the activity at 5 µM is above 80% and the activity at 10 µM is below 80%.

In the case of `Clc1ccc(Cn2cnc3ncccc32)cc1` [Compound 86], the activity at 5 µM is above 80% and the activity at 10 µM is below 80%.

Turning to `Cc1cc2nc(C(C)O)n(Cc3ccc(Cl)cc3)c2cc1C` (stereo not shown) [Compound 87], the activity at 5 µM was below 55% and the activity at 10 µM was below 55%.

Consider `Cc1cc2nc(C(C)N3CCCC3)n(Cc3ccc(Cl)cc3)c2cc1C` (stereo not shown) [Compound 88], for which the activity at 5 µM is below 55% and the activity at 10 µM is below 20%.

In the case of `Cc1cc2nc([C@H](C)N3CCC[C@H]3CO)n(Cc3ccc(Cl)cc3)c2cc1C` [Compound 89], the activity at 5 µM is below 55% and the activity at 10 µM is below 55%.

Consider `Cc1cc2nc([C@@H](C)C3CCC[C@H]3CO)n(Cc3ccc(Cl)cc3)c2cc1C` (stereo partly shown) [Compound 90], for which the activity at 5 µM is below 80% and the activity at 10 µM is below 55%.

Consider `Cc1cc2nc([C@H](C)N3CCC[C@@H]3CO)n(Cc3ccc(Cl)cc3)c2cc1C` [Compound 91], for which the activity at 5 µM is above 80% and the activity at 10 µM was above 80%.

On to `Cc1cc2nc([C@@H](C)N3CCC[C@@H]3CO)n(Cc3ccc(Cl)cc3)c2cc1C` [Compound 92], for which the activity at 5 µM is below 55% and the activity at 10 µM is below 20%.

For the compound `Fc1cc2ncn(Cc3ccc(Cl)cc3)c2cc1F` [Compound 94], the activity at 5 µM was below 80% and the activity at 10 µM was below 55%.

As to `OC[C@H]1CCCN1Cc1nc2ccccc2n1Cc1ccc(Cl)cc1` [Compound 95], the activity at 5 µM was above 80% and the activity at 10 µM was below 80%.

`Cc1cc2nc(CC3CCCC3)n(Cc3ccc(Cl)cc3)c2cc1C` [Compound 96]: the activity at 5 µM is below 80% and the activity at 10 µM is below 55%.

With `Cc1cc2nc(CN3CCC[C@@H]3C)n(Cc3ccc(Cl)cc3)c2cc1C` [Compound 97], the activity at 5 µM was below 55% and the activity at 10 µM was below 20%.

As for `Cc1cc2nc(CN3CCC[C@H]3C)n(Cc3ccc(Cl)cc3)c2cc1C` [Compound 98], the activity at 5 µM was below 55% and the activity at 10 µM is below 20%.

As for `CCCS(=O)(=O)c1nc2ccccc2n1Cc1ccc(Cl)cc1` [Compound 99], the activity at 5 µM is below 20% and the activity at 10 µM was below 20%.

For the compound `Clc1ccc(Cn2ccc3cc(Cl)cnc32)cc1` [Compound 100], the activity at 5 µM is above 80% and the activity at 10 µM was below 80%.

With `COc1c(Cl)cnc2c1ccn2Cc1ccc(Cl)cc1` [Compound 101], the activity at 5 µM is above 80% and the activity at 10 µM is below 80%.

Consider `Cc1c(Cl)cnc2c1ccn2Cc1ccc(Cl)cc1` [Compound 102], for which the activity at 5 µM was below 80% and the activity at 10 µM was below 80%.

With `N#Cc1cnc2c(ccn2Cc2ccc(Cl)cc2)c1` [Compound 103], the activity at 5 µM is above 80% and the activity at 10 µM was below 55%.

Turning to `N#Cc1ccc2c(ccn2Cc2ccc(Cl)cc2)n1` [Compound 104], the activity at 5 µM was below 55% and the activity at 10 µM was below 55%.

Take `N#Cc1cnc2ccn(Cc3ccc(Cl)cc3)c2c1` [Compound 105]: the activity at 5 µM is above 80% and the activity at 10 µM was above 80%.

`COc1ccc(Cn2c(C)nc3c(NS(=O)(=O)c4ccc(F)cc4)c(C)c(C)cc32)cc1` [Compound 107]: the activity at 5 µM is below 80% and the activity at 10 µM is below 55%.

Regarding `CCCC(=O)NCc1nc2ccccc2n1Cc1ccccc1C` [Compound 109], the activity at 5 µM was above 80% and the activity at 10 µM was above 80%.

In the case of `CC(=O)NCc1nc2ccccc2n1Cc1ccc(Cl)cc1` [Compound 110], the activity at 5 µM was above 80% and the activity at 10 µM is above 80%.

As for `O=C(Cc1ccccc1)NCCCc1nc2ccccc2n1Cc1ccc(Cl)cc1` [Compound 111], the activity at 5 µM is below 55% and the activity at 10 µM is below 20%.

Turning to `CCc1nc2ccccc2n1Cc1ccc(Cl)cc1` [Compound 112], the activity at 5 µM is above 80% and the activity at 10 µM is below 80%.

Regarding `CCC(=O)NCc1nc2ccccc2[nH]1` [Compound 113], the activity at 5 µM was above 80% and the activity at 10 µM is above 80%.

Take `CCn1c(CNC=O)nc2ccccc21` [Compound 114]: the activity at 5 µM is above 80% and the activity at 10 µM was above 80%.

As for `CC(C)(C)C(=O)NCc1nc2ccccc2[nH]1` [Compound 115], the activity at 5 µM is below 80% and the activity at 10 µM is above 80%.

Consider `CCCCCc1nc2ccccc2n1Cc1ccc(Cl)cc1` [Compound 116], for which the activity at 5 µM is below 55% and the activity at 10 µM was below 20%.

Consider `CCCCc1nc2ccccc2n1Cc1ccc(Cl)cc1` [Compound 117], for which the activity at 5 µM was below 20% and the activity at 10 µM was below 20%.

In the case of `CC(C)Cc1nc2ccccc2n1Cc1ccc(Cl)cc1` [Compound 118], the activity at 5 µM is below 55% and the activity at 10 µM is below 55%.

For `CC(C)c1nc2ccccc2n1Cc1ccc(Cl)cc1` [Compound 119], the activity at 5 µM is below 80% and the activity at 10 µM was below 55%.

For the compound `Clc1ccc(Cn2c(Cc3ccccc3)nc3ccccc32)cc1` [Compound 120], the activity at 5 µM is below 80% and the activity at 10 µM was below 55%.

`CC(C)c1nc2ccccc2n1Cc1ccc(Cl)cc1Cl` [Compound 121]: the activity at 5 µM is above 80% and the activity at 10 µM was below 20%.

Regarding `Clc1ccc(Cn2c(Cc3ccccc3)nc3ccccc32)c(Cl)c1` [Compound 122], the activity at 5 µM is below 55% and the activity at 10 µM was below 55%.

`FC(F)(F)c1nc2ccccc2n1Cc1ccc(Cl)cc1` [Compound 123]: the activity at 5 µM was above 80% and the activity at 10 µM is below 80%.

For `FC(F)(F)c1nc2ccccc2n1Cc1ccc(Cl)c(Cl)c1` [Compound 124], the activity at 5 µM was below 55% and the activity at 10 µM was below 55%.

As for `Cc1nc2cc(Cl)ccc2n1Cc1ccccc1` [Compound 125], the activity at 5 µM was below 80%.

Turning to `CC(=O)N(C)Cc1nc2ccccc2n1Cc1ccc(Cl)cc1Cl` [Compound 126], the activity at 5 µM is below 80% and the activity at 10 µM was below 55%.

`Clc1ccc(Cn2c(CN3CCOCC3)nc3ccccc32)cc1` [Compound 127]: the activity at 5 µM is below 55% and the activity at 10 µM is below 55%.

For `Cc1cc2ncn(Cc3ccccc3)c2cc1C` [Compound 128], the activity at 5 µM is below 55% and the activity at 10 µM was below 55%.

For the compound `Cc1cc2ncn(Cc3ccc(F)cc3)c2cc1C` [Compound 129], the activity at 5 µM was above 80% and the activity at 10 µM was above 80%.

As to `Cc1cc2ncn(Cc3ccc(Cl)cc3Cl)c2cc1C` [Compound 130], the activity at 5 µM was below 55% and the activity at 10 µM was below 20%.

On to `Cc1cc2ncn(Cc3ccc(Cl)c(Cl)c3)c2cc1C` [Compound 131], for which the activity at 5 µM is below 80% and the activity at 10 µM was below 55%.

For `NC1=NC2CCCCC2N1C(=O)c1ccc(Cl)cc1` (stereo not shown) [Compound 132], the activity at 5 µM is above 80% and the activity at 10 µM is above 80%.

On to `Nc1nc2ccccc2n1C(=O)c1ccc(Cl)cc1` [Compound 133], for which the activity at 5 µM is above 80% and the activity at 10 µM was below 55%.

With `Brc1ccc(Cn2cnc3ccccc32)cc1` [Compound 134], the activity at 5 µM was below 55% and the activity at 10 µM is below 20%.

As to `Cc1nc2ccccc2n1Cc1ccc(Br)cc1` [Compound 135], the activity at 5 µM was below 20% and the activity at 10 µM is below 20%.

As for `OCc1nc2ccccc2n1Cc1ccc(Br)cc1` [Compound 136], the activity at 10 µM was below 55%.

With `N#Cc1ccc(Cn2cnc3ccccc32)cc1` [Compound 137], the activity at 5 µM is below 80% and the activity at 10 µM was below 80%.

As to `Cc1cc2ncn(Cc3ccc(C#N)cc3)c2cc1C` [Compound 138], the activity at 5 µM is below 80% and the activity at 10 µM was above 80%.
